From ChEMBL document CHEMBL5465560, “Selectivity Literature for EUbOPEN Chemogenomic Library” (2024)

How the values were obtained:
[1] = target: Serine/threonine-protein kinase PAK 6 (Homo sapiens) (UniProt Q9NQU5); assay: Selectivity interaction (KinomeScan (DiscoverX)) EUB0000655a PAK6; conditions: at 10 µM
[2] = target: Fibroblast growth factor receptor 3 (Homo sapiens, UniProt P22607); conditions: at 10 µM
[3] = target: Bone morphogenetic protein receptor type-1B (Homo sapiens, UniProt O00238); assay: Selectivity interaction (KinomeScan (DiscoverX)) EUB0000607a BMPR1B; conditions: at 10 µM
[4] = target: Protein arginine N-methyltransferase 5 (Homo sapiens, UniProt O14744); assay: Selectivity interaction (Methyltransferase screen (radiometric assays, panel of 8 PRMTs, 21 protein lysine methyltransferases, 3 DNA methyltransferases, and one RNA methyltransferase)) EUB0000271b PRMT5
[5] = target: T1, Serine/threonine-protein kinase 17A (Homo sapiens) (UniProt Q9UEE5); assay: Selectivity interaction (KinomeScan (DiscoverX)) EUB0000595a STK17A; conditions: at 10 µM
T1 sequence (whole entry): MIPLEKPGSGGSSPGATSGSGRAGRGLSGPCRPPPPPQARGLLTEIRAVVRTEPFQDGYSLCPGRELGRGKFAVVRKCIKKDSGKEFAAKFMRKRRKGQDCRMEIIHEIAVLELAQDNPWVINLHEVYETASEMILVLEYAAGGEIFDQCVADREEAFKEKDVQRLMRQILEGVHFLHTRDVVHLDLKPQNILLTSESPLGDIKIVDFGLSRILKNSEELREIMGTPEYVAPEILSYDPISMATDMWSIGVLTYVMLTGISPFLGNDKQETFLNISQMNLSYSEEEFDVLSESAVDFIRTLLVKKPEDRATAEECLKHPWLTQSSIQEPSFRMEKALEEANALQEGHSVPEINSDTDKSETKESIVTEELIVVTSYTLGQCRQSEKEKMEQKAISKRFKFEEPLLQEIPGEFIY

[6] = target: T2, Ephrin type-B receptor 2 (Homo sapiens) (UniProt P29323); assay: Selectivity interaction (Ambit KINOMEscan and KiNATiv profiling in Jurkat cells) EUB0000090b EPHB2; type: cell-based; conditions: at 1 µM
T2 sequence (whole entry): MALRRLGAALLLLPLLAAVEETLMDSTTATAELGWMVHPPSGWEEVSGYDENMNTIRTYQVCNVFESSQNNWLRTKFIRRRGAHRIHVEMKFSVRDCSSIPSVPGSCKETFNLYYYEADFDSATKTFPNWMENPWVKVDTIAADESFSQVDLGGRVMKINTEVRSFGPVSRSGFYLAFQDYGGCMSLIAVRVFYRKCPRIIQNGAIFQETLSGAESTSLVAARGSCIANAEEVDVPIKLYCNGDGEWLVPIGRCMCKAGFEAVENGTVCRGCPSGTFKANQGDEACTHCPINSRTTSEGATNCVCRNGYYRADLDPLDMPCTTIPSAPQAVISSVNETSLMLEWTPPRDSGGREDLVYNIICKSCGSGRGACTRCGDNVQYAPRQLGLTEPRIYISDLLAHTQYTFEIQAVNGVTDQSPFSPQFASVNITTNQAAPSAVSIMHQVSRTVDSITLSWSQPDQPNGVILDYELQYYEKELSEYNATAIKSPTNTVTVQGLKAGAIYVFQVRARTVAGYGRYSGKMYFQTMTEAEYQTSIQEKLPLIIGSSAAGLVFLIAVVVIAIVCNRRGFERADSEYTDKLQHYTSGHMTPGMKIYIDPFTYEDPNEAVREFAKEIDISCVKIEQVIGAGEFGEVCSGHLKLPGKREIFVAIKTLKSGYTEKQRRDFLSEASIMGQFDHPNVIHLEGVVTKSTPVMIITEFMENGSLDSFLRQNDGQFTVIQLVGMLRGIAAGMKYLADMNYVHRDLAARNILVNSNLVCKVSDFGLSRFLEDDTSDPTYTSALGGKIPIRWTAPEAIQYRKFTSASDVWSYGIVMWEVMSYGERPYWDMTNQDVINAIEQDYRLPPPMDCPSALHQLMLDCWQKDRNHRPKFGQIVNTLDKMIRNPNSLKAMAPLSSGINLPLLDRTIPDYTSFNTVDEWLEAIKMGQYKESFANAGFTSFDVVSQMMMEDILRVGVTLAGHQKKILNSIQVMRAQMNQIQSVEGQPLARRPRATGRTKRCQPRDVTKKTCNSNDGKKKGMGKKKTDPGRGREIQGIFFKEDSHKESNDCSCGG

[7] = target: Ribosomal protein S6 kinase alpha-6 (Homo sapiens, UniProt Q9UK32); assay: Selectivity interaction (Ambit KINOMEscan and KiNATiv profiling in Jurkat cells) EUB0000090b RPS6KA6; type: cell-based; conditions: at 1 µM
[8] = target: T3, Protein arginine N-methyltransferase 7 (Homo sapiens) (UniProt Q9NVM4); conditions: at 10 µM
T3 sequence (whole entry): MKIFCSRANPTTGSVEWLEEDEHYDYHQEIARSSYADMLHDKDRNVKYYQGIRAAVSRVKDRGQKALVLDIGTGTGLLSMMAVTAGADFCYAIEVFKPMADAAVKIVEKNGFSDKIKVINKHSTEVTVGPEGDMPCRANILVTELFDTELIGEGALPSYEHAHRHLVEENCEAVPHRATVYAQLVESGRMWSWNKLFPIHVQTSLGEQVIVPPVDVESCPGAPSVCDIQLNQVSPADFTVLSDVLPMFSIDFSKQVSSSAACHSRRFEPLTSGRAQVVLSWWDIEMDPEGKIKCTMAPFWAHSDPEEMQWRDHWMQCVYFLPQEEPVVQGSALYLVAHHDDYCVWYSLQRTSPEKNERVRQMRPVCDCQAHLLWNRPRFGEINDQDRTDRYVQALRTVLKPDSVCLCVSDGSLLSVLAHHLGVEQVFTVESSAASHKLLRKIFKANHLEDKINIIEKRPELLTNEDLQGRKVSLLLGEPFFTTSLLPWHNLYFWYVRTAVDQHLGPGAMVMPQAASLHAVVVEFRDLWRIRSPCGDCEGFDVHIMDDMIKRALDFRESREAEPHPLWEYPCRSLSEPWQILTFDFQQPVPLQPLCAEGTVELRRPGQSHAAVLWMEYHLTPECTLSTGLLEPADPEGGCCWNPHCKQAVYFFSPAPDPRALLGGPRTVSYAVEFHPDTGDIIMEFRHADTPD

[9] = target: Serine/threonine-protein kinase 32B (Homo sapiens) (UniProt Q9NY57); assay: Selectivity interaction (KinomeScan (DiscoverX)) EUB0001619a STK32B; conditions: at 1 µM
Chain of Serine/threonine-protein kinase 32B (Homo sapiens) (Q9NY57 whole entry): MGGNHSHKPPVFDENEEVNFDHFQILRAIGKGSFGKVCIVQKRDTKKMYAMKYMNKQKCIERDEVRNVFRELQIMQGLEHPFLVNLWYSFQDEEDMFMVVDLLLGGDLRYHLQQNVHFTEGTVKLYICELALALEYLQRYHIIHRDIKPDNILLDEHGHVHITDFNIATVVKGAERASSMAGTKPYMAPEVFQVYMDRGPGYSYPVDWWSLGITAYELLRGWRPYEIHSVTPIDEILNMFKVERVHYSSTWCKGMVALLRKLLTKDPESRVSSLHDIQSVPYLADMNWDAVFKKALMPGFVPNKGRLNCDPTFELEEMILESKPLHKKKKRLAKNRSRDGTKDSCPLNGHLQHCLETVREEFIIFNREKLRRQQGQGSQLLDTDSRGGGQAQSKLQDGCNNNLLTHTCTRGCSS

Chain of Protein arginine N-methyltransferase 5 (O14744 whole entry): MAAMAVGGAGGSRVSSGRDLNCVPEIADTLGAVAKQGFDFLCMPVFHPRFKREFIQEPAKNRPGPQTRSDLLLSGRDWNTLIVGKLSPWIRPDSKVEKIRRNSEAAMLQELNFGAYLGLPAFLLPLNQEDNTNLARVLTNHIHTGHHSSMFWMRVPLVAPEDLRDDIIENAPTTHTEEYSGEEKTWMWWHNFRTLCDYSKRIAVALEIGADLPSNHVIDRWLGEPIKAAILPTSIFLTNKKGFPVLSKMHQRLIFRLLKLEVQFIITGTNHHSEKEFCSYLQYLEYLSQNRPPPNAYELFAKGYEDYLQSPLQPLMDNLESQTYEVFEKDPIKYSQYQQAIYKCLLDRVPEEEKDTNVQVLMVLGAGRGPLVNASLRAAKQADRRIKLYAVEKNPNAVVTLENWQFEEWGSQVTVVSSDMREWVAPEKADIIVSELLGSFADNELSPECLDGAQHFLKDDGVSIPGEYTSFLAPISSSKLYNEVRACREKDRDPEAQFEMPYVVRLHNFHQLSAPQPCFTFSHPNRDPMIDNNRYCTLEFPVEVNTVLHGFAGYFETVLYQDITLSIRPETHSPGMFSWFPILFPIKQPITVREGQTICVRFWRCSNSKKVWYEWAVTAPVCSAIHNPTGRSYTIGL
Chain of Bone morphogenetic protein receptor type-1B (O00238 whole entry): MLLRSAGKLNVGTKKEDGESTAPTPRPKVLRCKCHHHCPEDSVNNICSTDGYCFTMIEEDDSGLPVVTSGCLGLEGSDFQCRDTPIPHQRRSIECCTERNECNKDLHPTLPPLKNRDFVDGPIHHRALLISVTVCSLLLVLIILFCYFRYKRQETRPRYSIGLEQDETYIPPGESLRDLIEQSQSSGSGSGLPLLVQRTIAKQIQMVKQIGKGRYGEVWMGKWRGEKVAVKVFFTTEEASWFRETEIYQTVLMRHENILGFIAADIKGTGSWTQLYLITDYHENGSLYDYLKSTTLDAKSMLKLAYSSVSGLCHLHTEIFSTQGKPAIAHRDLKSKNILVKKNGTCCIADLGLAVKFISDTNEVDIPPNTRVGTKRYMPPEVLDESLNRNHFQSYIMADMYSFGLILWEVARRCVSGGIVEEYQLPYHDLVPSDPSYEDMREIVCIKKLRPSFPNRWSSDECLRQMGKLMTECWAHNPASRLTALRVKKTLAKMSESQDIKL
Chain of Serine/threonine-protein kinase PAK 6 (Homo sapiens) (Q9NQU5 whole entry, looked up): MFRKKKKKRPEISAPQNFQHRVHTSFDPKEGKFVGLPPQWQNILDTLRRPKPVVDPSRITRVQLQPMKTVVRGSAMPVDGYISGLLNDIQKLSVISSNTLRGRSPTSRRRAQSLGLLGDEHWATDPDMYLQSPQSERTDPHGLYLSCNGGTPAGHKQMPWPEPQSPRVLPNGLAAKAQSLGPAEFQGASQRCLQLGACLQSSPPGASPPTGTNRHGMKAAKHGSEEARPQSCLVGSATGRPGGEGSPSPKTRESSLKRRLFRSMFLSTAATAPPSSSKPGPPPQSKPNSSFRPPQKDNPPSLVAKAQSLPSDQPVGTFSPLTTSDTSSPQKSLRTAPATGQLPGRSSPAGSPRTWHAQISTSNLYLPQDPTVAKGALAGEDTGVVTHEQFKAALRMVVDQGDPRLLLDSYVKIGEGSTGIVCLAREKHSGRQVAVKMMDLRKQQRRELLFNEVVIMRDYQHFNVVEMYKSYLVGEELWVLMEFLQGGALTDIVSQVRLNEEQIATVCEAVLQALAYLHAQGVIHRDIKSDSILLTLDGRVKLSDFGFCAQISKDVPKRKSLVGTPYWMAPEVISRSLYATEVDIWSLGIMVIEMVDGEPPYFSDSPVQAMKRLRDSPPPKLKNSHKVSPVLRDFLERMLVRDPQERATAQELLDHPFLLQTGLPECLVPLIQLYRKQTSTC
Chain of Ribosomal protein S6 kinase alpha-6 (Q9UK32 whole entry): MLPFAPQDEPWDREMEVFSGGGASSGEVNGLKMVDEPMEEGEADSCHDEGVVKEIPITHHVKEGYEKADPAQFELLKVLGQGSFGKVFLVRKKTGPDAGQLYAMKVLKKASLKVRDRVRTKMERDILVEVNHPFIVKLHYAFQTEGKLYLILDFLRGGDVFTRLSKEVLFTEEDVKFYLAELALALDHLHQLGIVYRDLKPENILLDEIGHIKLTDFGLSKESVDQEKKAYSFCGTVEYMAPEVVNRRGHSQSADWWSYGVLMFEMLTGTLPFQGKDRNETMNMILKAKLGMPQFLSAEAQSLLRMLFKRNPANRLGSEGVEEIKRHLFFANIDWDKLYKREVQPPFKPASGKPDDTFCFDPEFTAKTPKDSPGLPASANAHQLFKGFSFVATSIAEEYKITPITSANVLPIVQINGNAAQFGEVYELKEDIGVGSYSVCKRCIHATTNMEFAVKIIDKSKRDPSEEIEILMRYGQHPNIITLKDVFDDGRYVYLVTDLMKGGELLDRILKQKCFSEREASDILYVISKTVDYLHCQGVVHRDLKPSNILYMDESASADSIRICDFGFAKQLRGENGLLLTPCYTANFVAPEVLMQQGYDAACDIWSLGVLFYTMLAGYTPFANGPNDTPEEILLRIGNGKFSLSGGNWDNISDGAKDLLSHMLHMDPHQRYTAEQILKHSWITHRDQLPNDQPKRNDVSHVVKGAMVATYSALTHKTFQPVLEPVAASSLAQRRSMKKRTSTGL
Chain of Fibroblast growth factor receptor 3 (P22607 23-806 limits assumed): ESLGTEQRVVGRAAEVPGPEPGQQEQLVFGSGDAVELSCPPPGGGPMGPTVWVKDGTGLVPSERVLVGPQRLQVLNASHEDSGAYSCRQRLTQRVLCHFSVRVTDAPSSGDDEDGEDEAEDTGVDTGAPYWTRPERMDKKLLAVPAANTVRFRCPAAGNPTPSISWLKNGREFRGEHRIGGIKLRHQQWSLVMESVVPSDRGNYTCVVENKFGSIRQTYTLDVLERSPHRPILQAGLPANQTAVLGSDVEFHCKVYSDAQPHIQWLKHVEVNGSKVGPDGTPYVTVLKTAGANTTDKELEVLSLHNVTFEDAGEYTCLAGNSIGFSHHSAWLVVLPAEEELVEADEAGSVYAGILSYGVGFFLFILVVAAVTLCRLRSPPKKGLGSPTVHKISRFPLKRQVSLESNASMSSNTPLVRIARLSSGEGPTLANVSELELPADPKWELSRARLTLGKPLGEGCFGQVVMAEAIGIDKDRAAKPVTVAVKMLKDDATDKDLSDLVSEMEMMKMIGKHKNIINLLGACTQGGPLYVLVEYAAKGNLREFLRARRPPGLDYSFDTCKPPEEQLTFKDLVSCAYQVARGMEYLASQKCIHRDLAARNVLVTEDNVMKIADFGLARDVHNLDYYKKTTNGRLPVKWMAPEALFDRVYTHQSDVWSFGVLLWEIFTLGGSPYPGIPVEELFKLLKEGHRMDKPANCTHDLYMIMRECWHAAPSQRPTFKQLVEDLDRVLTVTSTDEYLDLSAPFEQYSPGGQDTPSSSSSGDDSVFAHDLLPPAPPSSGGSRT

Question: `CN(C)CCOc1ccc(-c2nc(-c3ccncc3)c(-c3ccc4c(c3)CC/C4=N\O)[nH]2)cc1` was tested. Which % of control [1] did it give?
Answer: Its % of control is 100%.

Question: `Cc1cc([C@@H](C)Nc2ccccc2C(=O)O)c2nc(N3CCOCC3)cc(=O)n2c1` [AZD-6482] was tested. Which % of control [2] did it give?
Answer: The % of control was 83%.

Question: With `CNC(=O)Nc1ccc(-c2nc(N3CC4CCC(C3)O4)c3cnn(C4CCC5(CC4)OCCO5)c3n2)cc1` as the compound, how does the % of control [3] read?
Answer: The % of control was 93%.

Question: For `Cc1cc(C)cc([C@@H]2c3cc(C)ccc3NC(=O)CN2C(=O)c2ccc(Br)s2)c1`, which % of activity ([4]; at 1 µM) is on record?
Answer: The % of activity was 102%.

Question: And the % of activity ([4]; at 10 µM)?
Answer: The % of activity was 100%.

Question: `COCC(=O)NC/C=C/c1ccc2ncnc(Nc3ccc(Oc4ccc(C)nc4)c(C)c3)c2c1` [CP-724714] was tested. Which % of control [5] did it give?
Answer: Its % of control is 84%.

Question: Which % of control [6] does the source give for `CN(C)C/C=C/C(=O)Nc1ccc(C(=O)N2CCCC(Nc3ncc(Cl)c(-c4c[nH]c5ccccc45)n3)C2)cc1` (stereo not given) here?
Answer: Its % of control is 100%.

Question: And the % of control [7]?
Answer: The % of control was 14%.

Question: Which % activity [8] does the source give for `CNCCN1CCC(c2cc(CN(C)C(=O)c3cccc(Oc4ccccc4)c3)ccn2)CC1` here?
Answer: The % activity was over 90%.

Question: For `N#Cc1cccc(-c2c[nH]c3ncnc(N4CCOCC4)c23)c1`, which % of control [9] is on record?
Answer: Its % of control is 53%.
